# Assay results published in PubChem BioAssay (NCI).
#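 Protocol summary: plate cells (96-well), add compound at 5 concentrations, incubate 48 h, interpolate endpoints linearly. Definition used: TGI = concentration required for complete inhibition of growth.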
# Tests used:
# Test in all cases: growth of human tumour cells (NCI), 48 h
# NCI-H23 lung = test system: NCI-H23 lung
# SF-295 CNS = test system: SF-295 CNS
# MOLT-4 leukemia = test system: MOLT-4 leukemia
# MALME-3M melanoma = test system: MALME-3M melanoma
# SF-268 CNS = test system: SF-268 CNS
# OVCAR-8 ovarian = test system: OVCAR-8 ovarian
# IGROV1 ovarian = test system: IGROV1 ovarian
# A498 renal = test system: A498 renal
# ACHN renal = test system: ACHN renal
# CAKI-1 renal = test system: CAKI-1 renal
# KM12 colon = test system: KM12 colon
# SF-539 CNS = test system: SF-539 CNS
Compound,TGI (NCI-H23 lung) [µM],TGI (SF-295 CNS) [µM],TGI (MOLT-4 leukemia) [µM],TGI (MALME-3M melanoma) [µM],TGI (SF-268 CNS) [µM],TGI (OVCAR-8 ovarian) [µM],TGI (IGROV1 ovarian) [µM],TGI (A498 renal) [µM],TGI (ACHN renal) [µM],TGI (CAKI-1 renal) [µM],TGI (KM12 colon) [µM],TGI (SF-539 CNS) [µM]
O=C1[C@@H](O)[C@@H]2CCCC[C@@]23CCCN13,> 100,> 100,> 100,> 100,> 100,> 100,> 100,> 100,> 100,> 100,> 100,
CCCC(=O)OC[n+]1ccc(-c2c(COC(=O)NC(C)C)c(COC(=O)NC(C)C)c3n2CCC3)cc1,> 100,> 100,> 100,> 100,> 100,> 100,> 100,> 100,> 100,> 100,> 100,> 100
O=C(O)CCN(CCCN(CCC(=O)O)CCC(=O)O)CCC(=O)O,> 100,> 100,> 100,> 100,> 100,> 100,> 100,> 100,> 100,> 100,> 100,> 100
CN(C)C(=NC#N)N(Cc1ccccc1)Cc1ccccc1,> 100,> 100,,> 100,> 100,> 100,> 100,> 100,> 100,> 100,> 100,> 100
CC(C)C(Sc1nc(-c2ccccc2)c(-c2ccccc2)[nH]1)c1n[nH]c(=S)n1-c1ccccc1 (configuration not stated),77.9,57.3,47.5,50.9,> 100,> 100,69.2,> 100,79.5,,30.5,40.4
CCC12C=CCN3CCC4(c5cc(C(c6ccc(OC)cc6)C6Cc7ccccc7N6)c(OC)cc5N(C)C4C(O)(C(=O)OC)C1O)C32 (configuration not stated),> 100,> 100,18.2,> 100,> 100,> 100,51.2,80.3,> 100,> 100,36.5,78.4
CC1(C)CCCCCCCCCC2CC2CCC(C)(C)C1=O (configuration not stated),> 100,33.9,80.1,49,43.1,74.5,> 100,> 100,33.4,> 100,34.9,44.3
CC(C(=O)n1ccnc1)N1c2ccccc2Sc2ccccc21 (configuration not stated),> 100,> 100,> 100,> 100,> 100,> 100,> 100,> 100,> 100,,> 100,> 100
CS(=O)(=O)O[C@H]1[C@H](O)c2ccccc2[C@@H]1N=[N+]=[N-],> 100,> 100,> 100,> 100,,> 100,> 100,> 100,> 100,> 100,> 100,> 100
C[N+]12C=CC=C1C(N1CCCC1)c1scc(-c3ccc(F)cc3)c12 (configuration not stated),,> 100,78.1,> 100,> 100,> 100,36.1,> 100,,> 100,> 100,
